According to patent US8501446B2 (Vertex Pharmaceuticals Incorporated, priority 2004, dated 2013):

Legend:
Type in all cases: biochemical
ROCK I (AA 6-553) = molecular target: T1, ROCK I (AA 6-553) (Homo sapiens, UniProt Q13464); assay: ROCK inhibition assay, standard coupled enzyme system ("Enzyme"); conditions: enzyme-linked assay
T1 construct: ROCK I (AA 6-553)
How it was run: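 ROCK I (AA 6-553) at 45 nM and 30 °C with 45 μM ATP and 200 μM peptide, in 100 mM HEPES pH 7.5, 10 mM MgCl2, 25 mM NaCl, 2 mM DTT, 1.5% DMSO. ADP output read by a PK/LDH coupled system: 2.5 mM PEP, 350 μM NADH, 30 μg/ml PK, 10 μg/ml LDH.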

[1] = molecular target: T2, full length Aurora-A (AA 1-403) (Homo sapiens, UniProt O14965); assay: Aurora-A inhibition assay, standard coupled enzyme system; conditions: average Ki if more than one value determined
T2 construct: full length Aurora-A (AA 1-403)
T2 sequence (O14965 1-403): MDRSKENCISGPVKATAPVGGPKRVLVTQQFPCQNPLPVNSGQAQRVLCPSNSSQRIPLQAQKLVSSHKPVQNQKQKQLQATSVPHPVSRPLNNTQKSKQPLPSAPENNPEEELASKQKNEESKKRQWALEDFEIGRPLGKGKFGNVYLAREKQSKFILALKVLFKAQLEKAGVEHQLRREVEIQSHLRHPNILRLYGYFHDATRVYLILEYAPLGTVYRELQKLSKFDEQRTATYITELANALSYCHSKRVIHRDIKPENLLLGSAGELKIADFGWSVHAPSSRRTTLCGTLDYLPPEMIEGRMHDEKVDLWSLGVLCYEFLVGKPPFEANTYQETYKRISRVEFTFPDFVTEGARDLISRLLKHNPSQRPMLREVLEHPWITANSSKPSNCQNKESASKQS

Aurora-C = molecular target: T3, Aurora-C (Homo sapiens, UniProt Q9UQB9); assay: Aurora-C inhibition assay, coupled enzyme system as for Aurora-A; conditions: average Ki if more than one value determined
T3 sequence (Q9UQB9 1-309): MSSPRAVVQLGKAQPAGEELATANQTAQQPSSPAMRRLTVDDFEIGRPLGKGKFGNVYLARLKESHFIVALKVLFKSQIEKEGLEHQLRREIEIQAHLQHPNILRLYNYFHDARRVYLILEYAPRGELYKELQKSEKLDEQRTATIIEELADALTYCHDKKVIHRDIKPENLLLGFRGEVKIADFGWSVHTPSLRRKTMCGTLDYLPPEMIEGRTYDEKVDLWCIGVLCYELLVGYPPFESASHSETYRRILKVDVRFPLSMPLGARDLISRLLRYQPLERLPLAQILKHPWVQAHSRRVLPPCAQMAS
Procedure: Compounds were screened for their ability to inhibit full length Aurora-A (AA 1-403) activity using a standard coupled enzyme system (Fox et al., Protein Sci. 7, pp. 2249 (1998)). Reactions were carried out in a solution containing 100 mM HEPES (pH 7.5), 10 mM MgCl2, 25 mM NaCl, 300 μM NADH, 1 mM DTT and 3% DMSO. Final substrate concentrations in the assay were 200 μM ATP (Sigma Chemicals, St Louis, Mo.) and 800 μM peptide (LRRASLG, American Peptide, Sunnyvale, Calif.). Reactions were carried out at 30° C. and 35 nM Aurora-A. Final concentrations of the components of the coupled enzyme system were 2.5 mM phosphoenolpyruvate, 200 μM NADH, 60 μg/ml pyruvate kinase and 20 μg/ml lactate dehydrogenase.
An assay stock buffer solution was prepared containing all of the reagents listed above with the exception of ATP and the test compound of interest. The assay stock buffer solution (60 μl) was incubated in a 96 well plate with 2 μl of the test compound of interest at final concentrations spanning 0.002 μM to 30 μM at 30° C. for 10 min. Typically, a 12 point titration was conducted by preparing serial dilutions (from 1 mM compound stocks) with DMSO of the test compounds in daughter plates. The reaction was initiated by the addition of 5 μl of ATP (final concentration 200 μM). Rates of reaction were obtained using a Molecular Devices Spectramax plate reader (Sunnyvale, Calif.) over 10 min at 30° C. The Ki values were determined from the rate data as a function of inhibitor concentration using computerized nonlinear regression (Prism 3.0, Graphpad Software, San Diego, Calif.). Aurora-C activity was screened in a similar manner using Aurora-C protein. Aurora-B activity was screened using a radioactive assay, such as described in Examples 1 and 2, but using Aurora-B protein.

Aurora-B = Aurora-B (Homo sapiens, UniProt Q96GD4); assay: Aurora-B inhibition assay, radioactive assay; conditions: average Ki if more than one value determined
Chain of Aurora-B (Q96GD4 whole entry): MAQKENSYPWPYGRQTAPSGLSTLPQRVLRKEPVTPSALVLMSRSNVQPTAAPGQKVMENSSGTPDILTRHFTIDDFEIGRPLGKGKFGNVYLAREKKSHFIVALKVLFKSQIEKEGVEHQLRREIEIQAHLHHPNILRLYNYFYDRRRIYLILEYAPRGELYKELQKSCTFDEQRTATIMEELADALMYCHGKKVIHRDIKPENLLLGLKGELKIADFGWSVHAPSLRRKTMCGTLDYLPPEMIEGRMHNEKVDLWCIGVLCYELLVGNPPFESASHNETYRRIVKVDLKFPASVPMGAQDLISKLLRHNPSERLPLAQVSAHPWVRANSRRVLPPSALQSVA
How it was run: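 Radiometric [γ-33P]ATP kinase assay run as described for JAK3/ROCK but with Aurora-B protein; 33P incorporation into substrate measured by filter capture and scintillation counting after TCA quench. Background-subtracted data fit to give Ki(app).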

T1 sequence (Q13464 6-553, species assumed): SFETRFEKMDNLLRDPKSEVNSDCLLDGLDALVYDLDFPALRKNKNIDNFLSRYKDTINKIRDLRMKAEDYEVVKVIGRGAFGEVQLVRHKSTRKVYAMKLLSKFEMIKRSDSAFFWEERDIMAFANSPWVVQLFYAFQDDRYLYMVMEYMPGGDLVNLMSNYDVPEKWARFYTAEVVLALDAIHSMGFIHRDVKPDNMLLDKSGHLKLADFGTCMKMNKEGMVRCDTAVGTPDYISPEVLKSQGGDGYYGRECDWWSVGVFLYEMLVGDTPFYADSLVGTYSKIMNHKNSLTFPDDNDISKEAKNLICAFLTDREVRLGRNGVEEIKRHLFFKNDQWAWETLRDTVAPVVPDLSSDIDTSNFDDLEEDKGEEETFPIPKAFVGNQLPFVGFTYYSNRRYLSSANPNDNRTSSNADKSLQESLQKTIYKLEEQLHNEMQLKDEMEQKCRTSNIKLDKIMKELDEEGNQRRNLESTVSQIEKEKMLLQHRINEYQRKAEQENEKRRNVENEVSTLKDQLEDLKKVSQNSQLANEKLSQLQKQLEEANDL

Ki (ROCK I (AA 6-553)) | Ki [1] | Ki (Aurora-C) | Ki (Aurora-B) | Compound
500 to 5000 nM | < 500 nM | < 500 nM | < 500 nM | C#Cc1cnc2[nH]cc(-c3ncc(F)c(N[C@@H](C)c4ccc(F)cc4)n3)c2c1 [Compound 374]
500 to 5000 nM | < 500 nM | < 500 nM | < 500 nM | C[C@H](Nc1nc(-c2c[nH]c3ncc(Cl)cc23)ncc1C(=O)O)c1ccc(F)cc1 [Compound 370]
< 500 nM | < 500 nM | < 500 nM | < 500 nM | Fc1cnc(-c2c[nH]c3ncc(Cl)cc23)nc1NCC1CCNC1 (stereo not shown) [Compound 329]
500 to 5000 nM | < 500 nM | < 500 nM | < 500 nM | Fc1cnc(-c2c[nH]c3ncc(Cl)cc23)nc1NCc1ccccn1 [Compound 316]
500 to 5000 nM | < 500 nM | < 500 nM | < 500 nM | C[C@H](Nc1cc(CO)nc(-c2c[nH]c3ncc(Cl)cc23)n1)c1ccc(F)cc1 [Compound 339]
500 to 5000 nM | < 500 nM | < 500 nM | < 500 nM | Clc1ccc(CNc2ccnc(-c3c[nH]c4ncc(Cl)cc34)n2)cc1 [Compound 237]
< 500 nM | < 500 nM | 500 to 5000 nM | 500 to 5000 nM | Fc1cnc(-c2c[nH]c3ncc(Cl)cc23)nc1NC1CCCNC1 (stereo not shown) [Compound 347]
< 500 nM | < 500 nM | 500 to 5000 nM | 500 to 5000 nM | Fc1cnc(-c2c[nH]c3ncc(Cl)cc23)nc1NC1CCNCC1 [Compound 345]
500 to 5000 nM | < 500 nM | < 500 nM | < 500 nM | C[C@H](Nc1nc(-c2c[nH]c3ncc(Cl)cc23)ncc1C#N)C(=O)NCC(F)(F)F [Compound 420]
500 to 5000 nM | < 500 nM | < 500 nM | < 500 nM | Fc1cnc(-c2c[nH]c3ncc(Cl)cc23)nc1NCc1cccc(Cl)c1 [Compound 312]
500 to 5000 nM | < 500 nM | < 500 nM | 500 to 5000 nM | C[C@H](Nc1nc(-c2c[nH]c3ncc(Cl)cc23)ncc1F)c1cccc(O[C@H]2CCNC2)c1 [Compound 321]
500 to 5000 nM | < 500 nM | 500 to 5000 nM | 500 to 5000 nM | Clc1cnc2[nH]cc(-c3cccc(NC4CCCCC4)n3)c2c1 [Compound 290]
500 to 5000 nM | < 500 nM | < 500 nM | < 500 nM | Fc1cnc(-c2c[nH]c3ncc(Cl)cc23)nc1NCc1cccnc1 [Compound 317]
500 to 5000 nM | < 500 nM | < 500 nM | < 500 nM | C[C@H](Nc1nc(-c2c[nH]c3ncc(Cl)cc23)ncc1F)C1CCCCC1 [Compound 355]
500 to 5000 nM | < 500 nM | < 500 nM | < 500 nM | CC[C@H](Nc1nc(-c2c[nH]c3ncc(Cl)cc23)ncc1F)C(=O)NC [Compound 361]

Second part, the molecule before the results:

Compound | Ki (ROCK I (AA 6-553)) | Ki [1] | Ki (Aurora-C) | Ki (Aurora-B)
Fc1cnc(-c2c[nH]c3ncc(Cl)cc23)nc1NCc1ccc(Cl)cc1 [Compound 238] | 500 to 5000 nM | < 500 nM | < 500 nM | < 500 nM
Fc1cnc(-c2c[nH]c3ncc(Cl)cc23)nc1NCC1CCNCC1 [Compound 327] | < 500 nM | < 500 nM | < 500 nM | < 500 nM
Fc1cnc(-c2c[nH]c3ncc(Cl)cc23)nc1NCC1CCCNC1 (stereo not shown) [Compound 326] | < 500 nM | < 500 nM | < 500 nM | < 500 nM
O=C(CNc1nc(-c2c[nH]c3ncc(Cl)cc23)nc2ccccc12)NCC(F)(F)F [Compound 427] | 500 to 5000 nM | < 500 nM | 500 to 5000 nM | 500 to 5000 nM
CCSCCNC(=O)[C@H](C)Nc1nc(-c2c[nH]c3ncc(Cl)cc23)ncc1F [Compound 447] | 500 to 5000 nM | < 500 nM | 500 to 5000 nM | 500 to 5000 nM
Fc1cnc(-c2c[nH]c3ncc(Cl)cc23)nc1NCC1CCCN1 (stereo not shown) [Compound 328] | 500 to 5000 nM | < 500 nM | < 500 nM | < 500 nM
C[C@H](Nc1nc(-c2c[nH]c3ncc(Cl)cc23)ncc1F)c1ccc(F)cc1 [Compound 285] | 500 to 5000 nM | < 500 nM | < 500 nM | < 500 nM
C[C@H](Nc1nc(-c2c[nH]c3ncc(Cl)cc23)ncc1F)C(=O)NCCN [Compound 431] | 500 to 5000 nM | < 500 nM | < 500 nM | < 500 nM
Clc1ccc(CNc2cccc(-c3c[nH]c4ncc(Cl)cc34)n2)cc1 [Compound 242] | 500 to 5000 nM | < 500 nM | < 500 nM | 500 to 5000 nM
Fc1cnc(-c2c[nH]c3ncc(Cl)cc23)nc1NCC1CCCCC1 [Compound 349] | 500 to 5000 nM | < 500 nM | < 500 nM | < 500 nM
CC(C)S(=O)(=O)NCCNC(=O)[C@H](C)Nc1nc(-c2c[nH]c3ncc(Cl)cc23)ncc1F [Compound 454] | 500 to 5000 nM | < 500 nM | 500 to 5000 nM | 500 to 5000 nM
C[C@H](Nc1nc(-c2c[nH]c3ncc(Cl)cc23)ncc1F)c1cccc(O)c1 [Compound 306] | 500 to 5000 nM | < 500 nM | < 500 nM | < 500 nM
CNC(=O)[C@@H](Nc1nc(-c2c[nH]c3ncc(Cl)cc23)ncc1F)C(C)C [Compound 362] | 500 to 5000 nM | < 500 nM | < 500 nM | < 500 nM
CNC(=O)c1cc(N[C@@H](C)c2ccc(F)cc2)nc(-c2c[nH]c3ncc(Cl)cc23)n1 [Compound 359] | 500 to 5000 nM | < 500 nM | < 500 nM | < 500 nM
CC(C)c1cnc(-c2c[nH]c3ncc(Cl)cc23)nc1N[C@@H](C)C(=O)NCC(F)(F)F [Compound 429] | 500 to 5000 nM | < 500 nM | 500 to 5000 nM | 500 to 5000 nM
C[C@H](Nc1cc(C(=O)O)nc(-c2c[nH]c3ncc(Cl)cc23)n1)c1ccc(F)cc1 [Compound 323] | 500 to 5000 nM | < 500 nM | < 500 nM | < 500 nM
CNC(=O)CNc1nc(-c2c[nH]c3ncc(Cl)cc23)ncc1C(C)C [Compound 430] | 500 to 5000 nM | < 500 nM | 500 to 5000 nM | 500 to 5000 nM
Fc1cnc(-c2c[nH]c3ncc(Cl)cc23)nc1NC1CCCCC1 [Compound 356] | 500 to 5000 nM | < 500 nM | < 500 nM | < 500 nM
C[C@H](Nc1nc(-c2c[nH]c3ncc(Cl)cc23)ncc1F)c1cccc(N)c1 [Compound 333] | 500 to 5000 nM | < 500 nM | < 500 nM | < 500 nM
CNC(=O)[C@H](CO)Nc1nc(-c2c[nH]c3ncc(Cl)cc23)ncc1F [Compound 387] | 500 to 5000 nM | < 500 nM | < 500 nM | < 500 nM
Fc1cnc(-c2c[nH]c3ncc(Cl)cc23)nc1NC1CCOCC1 [Compound 348] | 500 to 5000 nM | < 500 nM | < 500 nM | < 500 nM
C[C@H](Nc1nc(-c2c[nH]c3ncc(Cl)cc23)ncc1F)C(=O)NCCNS(C)(=O)=O [Compound 368] | 500 to 5000 nM | < 500 nM | < 500 nM | < 500 nM
